# Test results reported in patent US20100099561A1, “HETEROBICYCLIC ALKYLTHIO-BRIDGED ISOXAZOLINES” (E.I. DU PONT DE NEMOURS AND COMPANY, priority 2008, published 2010).
# Legend:
# Type in all cases: in vivo
# [1] = tested on: morningglory (Ipomoea spp.); assay: Test A postemergence, morningglory; details: 0 to 100 scale (0 no effect, 100 complete control)
# How it was run: (§1)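 Visual injury rating, 0 = no effect to 100 = complete control, made roughly ten days after treatment by comparison with untreated controls. Preemergence: directed soil spray onto freshly planted loam/sand. Postemergence: foliar application at one- to two-leaf stage, 2–10 cm height.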
# [2] = tested on: pigweed (Amaranthus retroflexus); assay: Test B preemergence, pigweed; details: scale 0 to 100
# How it was run: (§2)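 Untreated controls served as reference for visual evaluation at 13 to 15 days. Seeds in a sand–loam blend had been treated preemergence with surfactant-containing non-phytotoxic formulation; scale 0 = no effect, 100 = complete control; dash indicates no result.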
# [3] = tested on: cocklebur (Xanthium strumarium); assay: Test B preemergence, cocklebur; details: scale 0 to 100
# How it was run: as §2
# [4] = tested on: giant foxtail (Setaria faberi); assay: Test A postemergence, giant foxtail; details: 0 to 100 scale (0 no effect, 100 complete control)
# How it was run: as §1
# [5] = tested on: velvetleaf (Abutilon theophrasti); assay: Test B preemergence, velvetleaf; details: Preemergence, scale 0 to 100
# How it was run: as §2
# [6] = tested on: wild oat (Avena fatua); assay: Test B preemergence, wild oat; details: scale 0 to 100
# How it was run: as §2
# [7] = tested on: large crabgrass (Digitaria sanguinalis); assay: Test B preemergence, large crabgrass; details: scale 0 to 100
# How it was run: as §2
# [8] = tested on: green foxtail (Setaria viridis); assay: Test B preemergence, green foxtail; details: scale 0 to 100
# How it was run: as §2
# [9] = tested on: catchweed bedstraw (Galium aparine); assay: Test B preemergence, catchweed bedstraw; details: scale 0 to 100
# How it was run: as §2
# [10] = tested on: woolly cupgrass (Eriochloa villosa); assay: Test B preemergence, woolly cupgrass; details: scale 0 to 100
# How it was run: as §2
# [11] = tested on: blackgrass (Alopecurus myosuroides); assay: Test B preemergence, blackgrass; details: scale 0 to 100
# How it was run: as §2
# [12] = tested on: ragweed (common ragweed, Ambrosia elatior); assay: Test B preemergence, ragweed; details: scale 0 to 100
# How it was run: as §2
# [13] = tested on: pigweed (Amaranthus retroflexus); assay: Test A postemergence, pigweed; details: 0 to 100 scale (0 no effect, 100 complete control)
# How it was run: as §1
# [14] = tested on: yellow nutsedge (Cyperus esculentus); assay: Test B preemergence, yellow nutsedge; details: scale 0 to 100
# How it was run: as §2
# [15] = tested on: corn (Zea mays); assay: Test A postemergence, corn; details: 0 to 100 scale (0 no effect, 100 complete control)
# How it was run: as §1
# [16] = tested on: sunflower (common oilseed sunflower, Helianthus annuus); assay: Test B preemergence, sunflower; details: Preemergence, scale 0 to 100
# How it was run: as §2
# [17] = tested on: wheat (Triticum aestivum); assay: Test B preemergence, wheat; details: Preemergence, scale 0 to 100
# How it was run: as §2
# [18] = tested on: downy bromegrass (Bromus tectorum); assay: Test B preemergence, downy bromegrass; details: scale 0 to 100
# How it was run: as §2
# [19] = tested on: bermudagrass (Cynodon dactylon); assay: Test B preemergence, bermudagrass; details: scale 0 to 100
# How it was run: as §2
# [20] = tested on: goosegrass (Eleusine indica); assay: Test B preemergence, goosegrass; details: scale 0 to 100
# How it was run: as §2
# [21] = tested on: giant foxtail (Setaria faberi); assay: Test A preemergence, giant foxtail; details: 0 to 100 scale (0 no effect, 100 complete control)
# How it was run: as §1
smiles,measurement,setting,value
CC1(C)CC(S(=O)(=O)Cc2c(C(F)(F)C(F)(F)F)nc3n(c2=O)CCC3)=NO1 [Compound 22],"Plant response rating, Morningglory",[1]; 125 g ai/ha,0
same,"Plant response rating, Morningglory",[1]; 500 g ai/ha,50
same,"Plant response rating, Pigweed",[2]; 31 g ai/ha,0
same,"Plant response rating, Pigweed",[2]; 125 g ai/ha,100
same,"Plant response rating, Cocklebur",[3]; 16 g ai/ha,0
same,"Plant response rating, Cocklebur",[3]; 31 g ai/ha,0
same,"Plant response rating, Cocklebur",[3]; 62 g ai/ha,0
same,"Plant response rating, Cocklebur",[3]; 125 g ai/ha,0
same,"Plant response rating, Foxtail, Giant",[4]; 125 g ai/ha,70
same,"Plant response rating, Foxtail, Giant",[4]; 500 g ai/ha,80
same,"Plant response rating, Velvetleaf",[5]; 16 g ai/ha,0
same,"Plant response rating, Velvetleaf",[5]; 31 g ai/ha,0
same,"Plant response rating, Velvetleaf",[5]; 62 g ai/ha,60
same,"Plant response rating, Velvetleaf",[5]; 125 g ai/ha,100
same,"Plant response rating, Oat, Wild",[6]; 16 g ai/ha,0
same,"Plant response rating, Oat, Wild",[6]; 31 g ai/ha,0
same,"Plant response rating, Oat, Wild",[6]; 62 g ai/ha,30
same,"Plant response rating, Oat, Wild",[6]; 125 g ai/ha,40
same,"Plant response rating, Crabgrass, Large",[7]; 16 g ai/ha,85
same,"Plant response rating, Crabgrass, Large",[7]; 31 g ai/ha,90
same,"Plant response rating, Crabgrass, Large",[7]; 62 g ai/ha,98
same,"Plant response rating, Crabgrass, Large",[7]; 125 g ai/ha,100
same,"Plant response rating, Foxtail, Green",[8]; 16 g ai/ha,50
same,"Plant response rating, Foxtail, Green",[8]; 31 g ai/ha,70
same,"Plant response rating, Foxtail, Green",[8]; 62 g ai/ha,100
same,"Plant response rating, Foxtail, Green",[8]; 125 g ai/ha,100
same,"Plant response rating, Galium",[9]; 16 g ai/ha,0
same,"Plant response rating, Galium",[9]; 31 g ai/ha,0
same,"Plant response rating, Galium",[9]; 62 g ai/ha,0
same,"Plant response rating, Galium",[9]; 125 g ai/ha,0
same,"Plant response rating, Cupgrass, Woolly",[10]; 16 g ai/ha,100
same,"Plant response rating, Cupgrass, Woolly",[10]; 31 g ai/ha,100
same,"Plant response rating, Cupgrass, Woolly",[10]; 62 g ai/ha,100
same,"Plant response rating, Cupgrass, Woolly",[10]; 125 g ai/ha,100
same,"Plant response rating, Blackgrass",[11]; 16 g ai/ha,0
same,"Plant response rating, Blackgrass",[11]; 31 g ai/ha,40
same,"Plant response rating, Blackgrass",[11]; 62 g ai/ha,40
same,"Plant response rating, Blackgrass",[11]; 125 g ai/ha,98
same,"Plant response rating, Ragweed",[12]; 16 g ai/ha,0
same,"Plant response rating, Ragweed",[12]; 31 g ai/ha,0
same,"Plant response rating, Ragweed",[12]; 62 g ai/ha,30
same,"Plant response rating, Ragweed",[12]; 125 g ai/ha,50
same,"Plant response rating, Pigweed",[13]; 125 g ai/ha,0
same,"Plant response rating, Pigweed",[13]; 500 g ai/ha,40
same,"Plant response rating, Nutsedge, Yellow",[14]; 16 g ai/ha,0
same,"Plant response rating, Nutsedge, Yellow",[14]; 31 g ai/ha,10
same,"Plant response rating, Nutsedge, Yellow",[14]; 62 g ai/ha,60
same,"Plant response rating, Nutsedge, Yellow",[14]; 125 g ai/ha,80
same,"Plant response rating, Corn",[15]; 125 g ai/ha,0
same,"Plant response rating, Corn",[15]; 500 g ai/ha,0
same,"Plant response rating, Sunflower",[16]; 16 g ai/ha,0
same,"Plant response rating, Sunflower",[16]; 31 g ai/ha,0
same,"Plant response rating, Sunflower",[16]; 62 g ai/ha,0
same,"Plant response rating, Sunflower",[16]; 125 g ai/ha,50
same,"Plant response rating, Wheat",[17]; 16 g ai/ha,0
same,"Plant response rating, Wheat",[17]; 31 g ai/ha,0
same,"Plant response rating, Wheat",[17]; 62 g ai/ha,0
same,"Plant response rating, Wheat",[17]; 125 g ai/ha,10
same,"Plant response rating, Bromegrass, Downy",[18]; 16 g ai/ha,0
same,"Plant response rating, Bromegrass, Downy",[18]; 31 g ai/ha,0
same,"Plant response rating, Bromegrass, Downy",[18]; 62 g ai/ha,0
same,"Plant response rating, Bromegrass, Downy",[18]; 125 g ai/ha,60
same,"Plant response rating, Bermudagrass",[19]; 16 g ai/ha,98
same,"Plant response rating, Bermudagrass",[19]; 31 g ai/ha,100
same,"Plant response rating, Bermudagrass",[19]; 62 g ai/ha,100
same,"Plant response rating, Bermudagrass",[19]; 125 g ai/ha,100
same,"Plant response rating, Goosegrass",[20]; 16 g ai/ha,30
same,"Plant response rating, Goosegrass",[20]; 31 g ai/ha,80
same,"Plant response rating, Goosegrass",[20]; 62 g ai/ha,100
same,"Plant response rating, Goosegrass",[20]; 125 g ai/ha,100
same,"Plant response rating, Foxtail, Giant",[21]; 125 g ai/ha,90
same,"Plant response rating, Foxtail, Giant",[21]; 500 g ai/ha,100
